# Assay results published in article PMC12670405, “Second-Generation AURKA-Targeting PROTACs: Structural Optimization toward in Vivo Degradation in Neuroblastoma” (Journal of Medicinal Chemistry, 2025).
# What was measured:
# Assay in all cases: KINOMEscan scanMAX
# Format in all cases: binding
# ACVR2B = molecular target: T1, ACVR2B (Homo sapiens, UniProt Q13705); details: read-out: Percent Control
# T1 construct: purchased Eurofins Discovery (DiscoverX KINOMEscan scanMAX)
# Procedure: (§1) The kinome-wide binding assay was performed by Eurofins Discovery using the scanMAX screening platform. More information can be found on the Eurofins Discovery Web site.
# ANKK1 = molecular target: T2, ANKK1 (Homo sapiens, UniProt Q8NFD2); details: read-out: Percent Control
# T2 construct: purchased Eurofins Discovery (DiscoverX KINOMEscan scanMAX)
# T2 sequence (Q8NFD2 whole entry): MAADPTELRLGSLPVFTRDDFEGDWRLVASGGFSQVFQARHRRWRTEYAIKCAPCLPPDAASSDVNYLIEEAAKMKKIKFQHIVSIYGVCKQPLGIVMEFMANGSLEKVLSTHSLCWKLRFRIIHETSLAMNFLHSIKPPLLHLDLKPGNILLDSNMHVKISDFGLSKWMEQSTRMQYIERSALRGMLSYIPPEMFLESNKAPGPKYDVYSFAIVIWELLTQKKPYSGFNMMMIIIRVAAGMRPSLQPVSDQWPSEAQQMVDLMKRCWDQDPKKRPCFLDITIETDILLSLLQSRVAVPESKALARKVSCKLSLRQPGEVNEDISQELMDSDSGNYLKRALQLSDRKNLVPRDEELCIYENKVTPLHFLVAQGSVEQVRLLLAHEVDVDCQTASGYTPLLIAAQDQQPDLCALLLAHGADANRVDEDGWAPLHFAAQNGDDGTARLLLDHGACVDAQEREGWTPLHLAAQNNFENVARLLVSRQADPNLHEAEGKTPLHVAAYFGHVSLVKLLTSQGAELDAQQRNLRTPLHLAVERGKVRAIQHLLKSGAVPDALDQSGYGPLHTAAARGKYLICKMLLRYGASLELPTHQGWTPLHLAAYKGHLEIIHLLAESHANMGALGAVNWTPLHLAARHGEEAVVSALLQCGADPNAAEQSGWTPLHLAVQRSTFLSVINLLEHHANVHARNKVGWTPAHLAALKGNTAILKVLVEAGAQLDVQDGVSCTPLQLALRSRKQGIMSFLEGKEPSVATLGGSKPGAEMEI
# Procedure: as §1
# AURKB = molecular target: T3, AURKB (Homo sapiens, UniProt Q96GD4); details: read-out: Percent Control
# T3 construct: purchased Eurofins Discovery
# Procedure: as §1
# BMPR1B = molecular target: T4, BMPR1B (Homo sapiens, UniProt O00238); details: read-out: Percent Control
# T4 construct: purchased Eurofins Discovery (DiscoverX KINOMEscan scanMAX)
# Procedure: as §1
# CSK = molecular target: T5, CSK (Homo sapiens, UniProt P41240); details: read-out: Percent Control
# T5 construct: purchased Eurofins Discovery (DiscoverX KINOMEscan scanMAX)
# T5 sequence (P41240 whole entry): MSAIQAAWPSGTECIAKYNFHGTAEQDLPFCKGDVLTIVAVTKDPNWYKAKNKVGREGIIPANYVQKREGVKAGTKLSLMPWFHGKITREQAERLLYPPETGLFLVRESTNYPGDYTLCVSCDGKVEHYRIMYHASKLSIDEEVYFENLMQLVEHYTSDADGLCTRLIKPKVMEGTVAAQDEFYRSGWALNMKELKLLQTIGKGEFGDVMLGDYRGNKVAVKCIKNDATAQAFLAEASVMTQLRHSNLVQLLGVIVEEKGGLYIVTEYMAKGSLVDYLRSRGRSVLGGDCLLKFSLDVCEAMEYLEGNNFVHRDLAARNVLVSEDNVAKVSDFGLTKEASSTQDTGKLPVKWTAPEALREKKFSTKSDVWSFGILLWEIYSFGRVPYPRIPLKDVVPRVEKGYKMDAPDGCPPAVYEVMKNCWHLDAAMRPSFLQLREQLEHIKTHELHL
# Procedure: as §1
# CSNK1A1L = molecular target: T6, CSNK1A1L (Homo sapiens, UniProt Q8N752); details: read-out: Percent Control
# T6 construct: purchased Eurofins Discovery (DiscoverX KINOMEscan scanMAX)
# Procedure: as §1
# CSNK1G1 = molecular target: T7, CSNK1G1 (Homo sapiens, UniProt Q9HCP0); details: read-out: Percent Control
# T7 construct: purchased Eurofins Discovery (DiscoverX KINOMEscan scanMAX)
# Procedure: as §1
# EPHA8 = molecular target: T8, EPHA8 (Homo sapiens, UniProt P29322); details: read-out: Percent Control
# T8 construct: purchased Eurofins Discovery (DiscoverX KINOMEscan scanMAX)
# Procedure: as §1
# FES = molecular target: T9, FES (Homo sapiens, UniProt P07332); details: read-out: Percent Control
# T9 construct: purchased Eurofins Discovery (DiscoverX KINOMEscan scanMAX)
# Procedure: as §1
# FLT3(ITD,D835V) = test system: FLT3(ITD,D835V)
# Procedure: as §1
# GRK1 = molecular target: T10, GRK1 (Homo sapiens, UniProt Q15835); details: read-out: Percent Control
# T10 construct: purchased Eurofins Discovery (DiscoverX KINOMEscan scanMAX)
# Procedure: as §1
# HCK = molecular target: T11, HCK (Homo sapiens, UniProt P08631); details: read-out: Percent Control
# T11 construct: purchased Eurofins Discovery (DiscoverX KINOMEscan scanMAX)
# Procedure: as §1
# IKK-epsilon = molecular target: T12, IKK-epsilon (Homo sapiens, UniProt Q14164); details: read-out: Percent Control
# T12 construct: purchased Eurofins Discovery (DiscoverX KINOMEscan scanMAX)
# Procedure: as §1
# KIT(D816H) = molecular target: T13, KIT(D816H) (Homo sapiens, UniProt P10721, D816H); details: read-out: Percent Control
# T13 construct: purchased Eurofins Discovery (DiscoverX KINOMEscan scanMAX)
# Procedure: as §1
# KIT(V559D) = molecular target: T14, KIT(V559D) (Homo sapiens, UniProt P10721, V559D); details: read-out: Percent Control
# T14 construct: purchased Eurofins Discovery (DiscoverX KINOMEscan scanMAX)
# Procedure: as §1
# MAPKAPK5 = molecular target: T15, MAPKAPK5 (Homo sapiens, UniProt Q8IW41); details: read-out: Percent Control
# T15 construct: purchased Eurofins Discovery (DiscoverX KINOMEscan scanMAX)
# Procedure: as §1
# MAST1 = molecular target: T16, MAST1 (Homo sapiens, UniProt Q9Y2H9); details: read-out: Percent Control
# T16 construct: purchased Eurofins Discovery (DiscoverX KINOMEscan scanMAX)
# Procedure: as §1
# NEK6 = molecular target: T17, NEK6 (Homo sapiens, UniProt Q9HC98); details: read-out: Percent Control
# T17 construct: purchased Eurofins Discovery (DiscoverX KINOMEscan scanMAX)
# Procedure: as §1
# OSR1 = molecular target: T18, OSR1 (Homo sapiens, UniProt O95747); details: read-out: Percent Control
# T18 construct: purchased Eurofins Discovery (DiscoverX KINOMEscan scanMAX)
# T18 sequence (O95747 whole entry): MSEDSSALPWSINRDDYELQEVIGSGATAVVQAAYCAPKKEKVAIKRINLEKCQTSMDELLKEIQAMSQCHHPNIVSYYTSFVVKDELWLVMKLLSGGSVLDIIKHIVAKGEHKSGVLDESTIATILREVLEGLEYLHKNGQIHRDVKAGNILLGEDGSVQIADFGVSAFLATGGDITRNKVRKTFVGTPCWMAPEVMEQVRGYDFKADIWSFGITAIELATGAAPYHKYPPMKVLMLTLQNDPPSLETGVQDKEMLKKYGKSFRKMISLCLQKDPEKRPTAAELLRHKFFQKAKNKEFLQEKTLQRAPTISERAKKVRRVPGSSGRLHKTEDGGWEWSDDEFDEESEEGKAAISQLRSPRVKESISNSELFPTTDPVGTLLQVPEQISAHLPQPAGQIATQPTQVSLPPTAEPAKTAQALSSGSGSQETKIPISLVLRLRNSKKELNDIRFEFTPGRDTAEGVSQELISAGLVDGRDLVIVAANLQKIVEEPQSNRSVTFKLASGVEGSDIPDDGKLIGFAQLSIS
# Procedure: as §1
# PDPK1 = molecular target: T19, PDPK1 (Homo sapiens, UniProt O15530); details: read-out: Percent Control
# T19 construct: purchased Eurofins Discovery (DiscoverX KINOMEscan scanMAX)
# Procedure: as §1
# PFTAIRE2 = molecular target: T20, PFTAIRE2 (Homo sapiens, UniProt Q96Q40); details: read-out: Percent Control
# T20 construct: purchased Eurofins Discovery (DiscoverX KINOMEscan scanMAX)
# Procedure: as §1
# PHKG1 = molecular target: T21, PHKG1 (Homo sapiens, UniProt Q16816); details: read-out: Percent Control
# T21 construct: purchased Eurofins Discovery (DiscoverX KINOMEscan scanMAX)
# Procedure: as §1
# QSK = molecular target: T22, QSK (Homo sapiens, UniProt Q9Y2K2); details: read-out: Percent Control
# T22 construct: purchased Eurofins Discovery (DiscoverX KINOMEscan scanMAX)
# T22 sequence (Q9Y2K2 whole entry): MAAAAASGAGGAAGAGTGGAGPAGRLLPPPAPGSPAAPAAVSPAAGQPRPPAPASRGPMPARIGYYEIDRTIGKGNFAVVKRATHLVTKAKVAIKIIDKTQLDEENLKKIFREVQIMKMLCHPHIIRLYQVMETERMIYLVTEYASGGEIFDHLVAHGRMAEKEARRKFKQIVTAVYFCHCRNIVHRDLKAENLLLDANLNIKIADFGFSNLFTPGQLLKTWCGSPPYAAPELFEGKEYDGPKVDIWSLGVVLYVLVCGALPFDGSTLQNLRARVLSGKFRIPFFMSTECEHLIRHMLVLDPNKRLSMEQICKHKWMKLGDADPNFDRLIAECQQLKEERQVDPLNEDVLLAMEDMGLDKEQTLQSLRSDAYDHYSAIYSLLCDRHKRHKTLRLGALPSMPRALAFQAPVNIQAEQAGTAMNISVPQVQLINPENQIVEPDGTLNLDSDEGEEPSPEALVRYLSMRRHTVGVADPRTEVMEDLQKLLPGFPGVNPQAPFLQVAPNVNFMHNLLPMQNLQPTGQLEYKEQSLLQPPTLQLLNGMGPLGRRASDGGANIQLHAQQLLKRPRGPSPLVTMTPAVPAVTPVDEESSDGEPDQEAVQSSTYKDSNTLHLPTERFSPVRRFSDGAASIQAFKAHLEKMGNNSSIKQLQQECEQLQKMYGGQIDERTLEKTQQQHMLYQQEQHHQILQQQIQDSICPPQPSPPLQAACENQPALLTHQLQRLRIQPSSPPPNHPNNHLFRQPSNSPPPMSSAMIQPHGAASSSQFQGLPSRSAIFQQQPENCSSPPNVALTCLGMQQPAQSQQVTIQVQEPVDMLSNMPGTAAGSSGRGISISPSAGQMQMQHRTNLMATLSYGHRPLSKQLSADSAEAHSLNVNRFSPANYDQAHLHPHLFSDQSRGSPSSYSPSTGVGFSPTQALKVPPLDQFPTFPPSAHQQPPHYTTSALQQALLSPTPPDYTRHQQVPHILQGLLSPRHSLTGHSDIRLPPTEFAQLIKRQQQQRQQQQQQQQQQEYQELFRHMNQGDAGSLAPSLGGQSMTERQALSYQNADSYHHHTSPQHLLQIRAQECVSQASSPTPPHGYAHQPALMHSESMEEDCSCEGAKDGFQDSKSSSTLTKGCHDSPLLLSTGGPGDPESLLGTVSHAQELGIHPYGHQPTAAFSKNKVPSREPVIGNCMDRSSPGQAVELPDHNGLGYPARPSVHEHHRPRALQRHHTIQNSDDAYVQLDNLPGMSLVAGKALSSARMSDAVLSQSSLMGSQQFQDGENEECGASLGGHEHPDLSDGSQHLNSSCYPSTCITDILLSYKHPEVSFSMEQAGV
# Procedure: as §1
# RAF1 = molecular target: T23, RAF1 (Homo sapiens, UniProt P04049); details: read-out: Percent Control
# T23 construct: purchased Eurofins Discovery (DiscoverX KINOMEscan scanMAX)
# Procedure: as §1
# [1] = molecular target: T24, RPS6KA4(Kin.Dom.1-N-terminal) (Homo sapiens, UniProt O75676); details: read-out: Percent Control
# T24 construct: RPS6KA4(Kin.Dom.1-N-terminal); purchased Eurofins Discovery (DiscoverX KINOMEscan scanMAX)
# Procedure: as §1
# [2] = molecular target: T25, RPS6KA5(Kin.Dom.2-C-terminal) (Homo sapiens, UniProt O75582); details: read-out: Percent Control
# T25 construct: RPS6KA5(Kin.Dom.2-C-terminal); purchased Eurofins Discovery (DiscoverX KINOMEscan scanMAX)
# T25 sequence (O75582 388-802 limits assumed): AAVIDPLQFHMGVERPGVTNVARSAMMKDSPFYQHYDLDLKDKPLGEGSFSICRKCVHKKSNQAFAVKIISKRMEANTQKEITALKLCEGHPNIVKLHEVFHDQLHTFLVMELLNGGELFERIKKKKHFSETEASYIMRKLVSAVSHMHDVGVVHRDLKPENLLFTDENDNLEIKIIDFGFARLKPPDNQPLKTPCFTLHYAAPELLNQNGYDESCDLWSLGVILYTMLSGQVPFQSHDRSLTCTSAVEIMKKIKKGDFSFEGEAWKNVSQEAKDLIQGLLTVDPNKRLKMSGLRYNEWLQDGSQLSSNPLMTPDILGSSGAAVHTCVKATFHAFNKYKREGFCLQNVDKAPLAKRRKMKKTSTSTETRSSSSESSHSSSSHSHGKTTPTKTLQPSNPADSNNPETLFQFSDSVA
# Procedure: as §1
# [3] = molecular target: T26, RSK1(Kin.Dom.2-C-terminal) (Homo sapiens, UniProt Q15418); details: read-out: Percent Control
# T26 construct: RSK1(Kin.Dom.2-C-terminal); purchased Eurofins Discovery (DiscoverX KINOMEscan scanMAX)
# T26 sequence (Q15418 392-735 limits assumed): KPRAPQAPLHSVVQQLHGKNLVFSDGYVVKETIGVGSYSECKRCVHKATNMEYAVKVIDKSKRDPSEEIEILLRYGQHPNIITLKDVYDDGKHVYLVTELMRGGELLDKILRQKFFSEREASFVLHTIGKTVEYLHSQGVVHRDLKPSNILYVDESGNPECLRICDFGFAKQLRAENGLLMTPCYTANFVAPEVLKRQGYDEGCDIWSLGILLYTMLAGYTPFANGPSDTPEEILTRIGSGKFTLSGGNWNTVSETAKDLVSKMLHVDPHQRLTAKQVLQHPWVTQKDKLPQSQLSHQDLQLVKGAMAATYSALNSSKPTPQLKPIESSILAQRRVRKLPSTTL
# Procedure: as §1
# SNARK = molecular target: T27, SNARK (Homo sapiens, UniProt Q9H093); details: read-out: Percent Control
# T27 construct: purchased Eurofins Discovery (DiscoverX KINOMEscan scanMAX)
# Procedure: as §1
# STK16 = molecular target: T28, STK16 (Homo sapiens, UniProt O75716); details: read-out: Percent Control
# T28 construct: purchased Eurofins Discovery (DiscoverX KINOMEscan scanMAX)
# Procedure: as §1
# STK39 = molecular target: T29, STK39 (Homo sapiens, UniProt Q9UEW8); details: read-out: Percent Control
# T29 construct: purchased Eurofins Discovery (DiscoverX KINOMEscan scanMAX)
# Procedure: as §1
# TAOK2 = molecular target: T30, TAOK2 (Homo sapiens, UniProt Q9UL54); details: read-out: Percent Control
# T30 construct: purchased Eurofins Discovery (DiscoverX KINOMEscan scanMAX)
# T30 sequence (Q9UL54 whole entry): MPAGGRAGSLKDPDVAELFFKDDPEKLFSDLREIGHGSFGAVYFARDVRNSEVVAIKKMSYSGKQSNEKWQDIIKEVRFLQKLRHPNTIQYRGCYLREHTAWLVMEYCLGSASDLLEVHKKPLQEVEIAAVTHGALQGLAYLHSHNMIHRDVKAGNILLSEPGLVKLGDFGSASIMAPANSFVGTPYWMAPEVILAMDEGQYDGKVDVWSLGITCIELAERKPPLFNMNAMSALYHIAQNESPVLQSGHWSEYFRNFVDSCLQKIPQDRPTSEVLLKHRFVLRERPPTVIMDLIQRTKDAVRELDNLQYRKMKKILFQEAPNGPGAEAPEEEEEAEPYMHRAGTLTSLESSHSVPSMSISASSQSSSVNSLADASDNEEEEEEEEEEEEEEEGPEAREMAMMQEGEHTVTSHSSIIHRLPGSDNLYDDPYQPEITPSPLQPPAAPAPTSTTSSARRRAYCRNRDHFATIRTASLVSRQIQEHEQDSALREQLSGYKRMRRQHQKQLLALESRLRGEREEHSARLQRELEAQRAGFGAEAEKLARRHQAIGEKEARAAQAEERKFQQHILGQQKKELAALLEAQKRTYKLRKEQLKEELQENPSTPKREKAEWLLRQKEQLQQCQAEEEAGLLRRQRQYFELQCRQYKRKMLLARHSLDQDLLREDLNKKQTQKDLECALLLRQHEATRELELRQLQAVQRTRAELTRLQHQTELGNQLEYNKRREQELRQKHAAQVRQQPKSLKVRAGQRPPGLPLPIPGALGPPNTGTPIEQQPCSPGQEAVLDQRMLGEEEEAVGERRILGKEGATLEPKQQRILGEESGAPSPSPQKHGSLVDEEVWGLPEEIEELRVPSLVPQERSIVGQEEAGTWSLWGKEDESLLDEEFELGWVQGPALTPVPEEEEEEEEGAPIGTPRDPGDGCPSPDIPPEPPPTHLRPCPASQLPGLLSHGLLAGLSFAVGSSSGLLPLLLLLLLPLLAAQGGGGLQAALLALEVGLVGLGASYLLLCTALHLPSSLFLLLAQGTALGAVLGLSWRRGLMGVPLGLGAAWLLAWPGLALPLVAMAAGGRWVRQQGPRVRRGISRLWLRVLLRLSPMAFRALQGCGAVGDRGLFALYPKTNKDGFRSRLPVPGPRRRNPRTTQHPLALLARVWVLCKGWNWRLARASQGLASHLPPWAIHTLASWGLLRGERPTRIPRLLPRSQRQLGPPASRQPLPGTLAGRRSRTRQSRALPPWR
# Procedure: as §1
# ZAK = molecular target: T31, ZAK (Homo sapiens, UniProt Q9NYL2); details: read-out: Percent Control
# T31 construct: purchased Eurofins Discovery (DiscoverX KINOMEscan scanMAX)
# Procedure: as §1
smiles,measurement,setting,value
Cc1cc(Nc2ccc(F)c(CC3(C(=O)N4CCC(F)(CN5CCN(c6ccc(N7CCC(=O)NC7=O)cn6)CC5)CC4)CCN(Cc4cccc(Cl)c4F)CC3)n2)n[nH]1 [SK5527],remaining binding at 0.1 µM,ACVR2B; 100 nM,100%
same,remaining binding at 1 µM,ACVR2B; 1000 nM,87%
same,remaining binding at 0.1 µM,ANKK1; 100 nM,73%
same,remaining binding at 1 µM,ANKK1; 1000 nM,71%
same,remaining binding at 0.1 µM,AURKB; 100 nM,100%
same,remaining binding at 1 µM,AURKB; 1000 nM,53%
same,remaining binding at 0.1 µM,BMPR1B; 100 nM,77%
same,remaining binding at 1 µM,BMPR1B; 1000 nM,72%
same,remaining binding at 0.1 µM,CSK; 100 nM,100%
same,remaining binding at 1 µM,CSK; 1000 nM,100%
same,remaining binding at 0.1 µM,CSNK1A1L; 100 nM,91%
same,remaining binding at 1 µM,CSNK1A1L; 1000 nM,87%
same,remaining binding at 0.1 µM,CSNK1G1; 100 nM,100%
same,remaining binding at 1 µM,CSNK1G1; 1000 nM,98%
same,remaining binding at 0.1 µM,EPHA8; 100 nM,91%
same,remaining binding at 1 µM,EPHA8; 1000 nM,81%
same,remaining binding at 0.1 µM,FES; 100 nM,100%
same,remaining binding at 1 µM,FES; 1000 nM,100%
same,Percent Control,"FLT3(ITD,D835V); 100 nM",79%
same,Percent Control,"FLT3(ITD,D835V); 1000 nM",59%
same,remaining binding at 0.1 µM,GRK1; 100 nM,100%
same,remaining binding at 1 µM,GRK1; 1000 nM,85%
same,remaining binding at 0.1 µM,HCK; 100 nM,100%
same,remaining binding at 1 µM,HCK; 1000 nM,100%
same,remaining binding at 0.1 µM,IKK-epsilon; 100 nM,75%
same,remaining binding at 1 µM,IKK-epsilon; 1000 nM,67%
same,remaining binding at 0.1 µM,KIT(D816H); 100 nM,100%
same,remaining binding at 1 µM,KIT(D816H); 1000 nM,100%
same,remaining binding at 0.1 µM,KIT(V559D); 100 nM,100%
same,remaining binding at 1 µM,KIT(V559D); 1000 nM,100%
same,remaining binding at 0.1 µM,MAPKAPK5; 100 nM,85%
same,remaining binding at 1 µM,MAPKAPK5; 1000 nM,74%
same,remaining binding at 0.1 µM,MAST1; 100 nM,72%
same,remaining binding at 1 µM,MAST1; 1000 nM,100%
same,remaining binding at 0.1 µM,NEK6; 100 nM,96%
same,remaining binding at 1 µM,NEK6; 1000 nM,54%
same,remaining binding at 0.1 µM,OSR1; 100 nM,100%
same,remaining binding at 1 µM,OSR1; 1000 nM,97%
same,remaining binding at 0.1 µM,PDPK1; 100 nM,89%
same,remaining binding at 1 µM,PDPK1; 1000 nM,100%
same,remaining binding at 0.1 µM,PFTAIRE2; 100 nM,75%
same,remaining binding at 1 µM,PFTAIRE2; 1000 nM,80%
same,remaining binding at 0.1 µM,PHKG1; 100 nM,99%
same,remaining binding at 1 µM,PHKG1; 1000 nM,100%
same,remaining binding at 0.1 µM,QSK; 100 nM,89%
same,remaining binding at 1 µM,QSK; 1000 nM,90%
same,remaining binding at 0.1 µM,RAF1; 100 nM,100%
same,remaining binding at 1 µM,RAF1; 1000 nM,100%
same,remaining binding at 0.1 µM,[1]; 100 nM,90%
same,remaining binding at 1 µM,[1]; 1000 nM,95%
same,remaining binding at 0.1 µM,[2]; 100 nM,100%
same,remaining binding at 1 µM,[2]; 1000 nM,96%
same,remaining binding at 0.1 µM,[3]; 100 nM,85%
same,remaining binding at 1 µM,[3]; 1000 nM,92%
same,remaining binding at 0.1 µM,SNARK; 100 nM,86%
same,remaining binding at 1 µM,SNARK; 1000 nM,76%
same,remaining binding at 0.1 µM,STK16; 100 nM,100%
same,remaining binding at 1 µM,STK16; 1000 nM,69%
same,remaining binding at 0.1 µM,STK39; 100 nM,100%
same,remaining binding at 1 µM,STK39; 1000 nM,85%
same,remaining binding at 0.1 µM,TAOK2; 100 nM,100%
same,remaining binding at 1 µM,TAOK2; 1000 nM,100%
same,remaining binding at 0.1 µM,ZAK; 100 nM,77%
same,remaining binding at 1 µM,ZAK; 1000 nM,85%
